The structures appear in SMILES notation. pEC50: −log10 of the molar value.

This test deals with T1, hS1P1 (Homo sapiens, UniProt P21453).
T1 construct: expressed in transfected cells
T1 sequence (P21453 whole entry): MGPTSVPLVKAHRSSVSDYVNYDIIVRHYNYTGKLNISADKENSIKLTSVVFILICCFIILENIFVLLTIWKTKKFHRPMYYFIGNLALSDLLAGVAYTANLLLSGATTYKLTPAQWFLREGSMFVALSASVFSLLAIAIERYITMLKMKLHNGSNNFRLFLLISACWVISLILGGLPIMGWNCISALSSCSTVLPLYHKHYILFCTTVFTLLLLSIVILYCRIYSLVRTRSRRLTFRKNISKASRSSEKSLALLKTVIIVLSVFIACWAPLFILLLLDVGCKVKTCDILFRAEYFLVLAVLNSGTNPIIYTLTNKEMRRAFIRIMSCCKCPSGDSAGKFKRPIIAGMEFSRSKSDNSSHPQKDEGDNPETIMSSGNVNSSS
The experiment in a line: hS1P1 EC50 (S1P receptor Ca2+ flux protocol, FLIPR, CHO K1 Gqi5 cells). The test is classed as cell-based. The conditions noted are these: several values per compound = repeat determinations as printed. The method in brief: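 Calcium flux (FLIPR) in CHO K1 cells stably expressing Gqi5 and N-terminally V5-tagged human S1P1, loaded with calcium dye 90 min at RT. Peak fluorescence recorded 90 s after compound addition (10-point 3x dilution, 0.25% DMSO), normalized to 200 nM S1P (100%) and buffer (0%); EC50 from 4-parameter fit.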
The pEC50 is −log10 of the EC50, conventionally taken in molar units. A high value points to a low EC50. Take `O=C(O)C1CN(Cc2ccc(-c3cc4cc(Cc5nccs5)ccc4o3)c(F)c2)C1` [Reference Compound 94, 1-((3-Fluoro-4-(5-(thiazol-2-ylmethyl)benzofuran-2-yl)phenyl)methyl)azetidine-3-carboxylic acid]: the pEC50 is 7.12.
As to `O=C(O)C1CN(Cc2cccc(-c3cc4cc(Cc5ccccc5)ccc4o3)c2)C1` [Reference Compound 96, 1-(3-(5-Benzylbenzofuran-2-yl)benzyl)azetidine-3-carboxylic acid], the pEC50 was 5.32.
The same measure for `CC(C)(c1ccccc1)c1ccc2oc(-c3ccc(CN4CC(C(=O)O)C4)cc3F)cc2c1` [Reference Compound 97, 1-((3-Fluoro-4-(5-(2-phenylpropan-2-yl)benzofuran-2-yl)phenyl)methyl)azetidine-3-carboxylic acid]: 6.44; for `O=C(O)C1CN(Cc2ccc(-c3cc4cc(Cc5ccccc5)ccc4[nH]3)c(F)c2)C1` [Reference Compound 99, 1-((3-Fluoro-4-(5-(phenylmethyl)-1H-indol-2-yl)phenyl)methyl)-3-azetidinecarboxylic acid]: 5.87; for `O=C(O)C1CN(Cc2ccc(-c3cc4cc(Cc5ncccn5)ccc4o3)c(F)c2)C1` [Reference Compound 100]: 7.06.
The same measure for `O=C(c1ccccc1)c1ccc2oc(-c3ccc(CN4CC(C(=O)O)C4)cc3F)cc2c1` [Reference Compound 102, 1-((4-(5-Benzoylbenzofuran-2-yl)-3-fluorophenyl)methyl)azetidine-3-carboxylic acid]: 7.10; for `O=C(O)C1CN(Cc2ccc(-c3cc4cc(Cc5ccccc5)nc(Cl)c4o3)c(F)c2)C1` [Reference Compound 107, 1-((4-(5-Benzyl-7-chlorofuro[2,3-c]pyridin-2-yl)-3-fluorophenyl)methyl)azetidine-3-carboxylic acid]: 5.59.
With `O=C(O)C1CN(Cc2ccc(-c3cc4cc(Cc5ccccc5)ncc4o3)c(F)c2)C1` [Reference Compound 108, 1-((4-(5-Benzylfuro[2,3-c]pyridin-2-yl)-3-fluorophenyl)methyl)azetidine-3-carboxylic acid], the pEC50 was 6.39.
Molecule `O=C(O)C1CN(Cc2ccc(-c3cc4nc(Cc5ccccc5)ccc4o3)c(F)c2)C1` [Reference Compound 109, 1-((4-(5-Benzylfuro[3,2-b]pyridin-2-yl)-3-fluorophenyl)methyl)azetidine-3-carboxylic acid] gave a pEC50 of 6.39.
In the case of `O=C(O)C1CN(Cc2ccc(-c3nc4ccc(Cc5ccccc5)cc4o3)c(F)c2)C1` [Reference Compound 111, 1-((4-(6-Benzylbenzo[d]oxazol-2-yl)-3-fluorophenyl)methyl)azetidine-3-carboxylic acid] it was 8.10; in that of `O=C(O)C1CN(Cc2ccc(-c3nc4cc(Cc5ccccc5)ccc4o3)c(F)c2)C1` [Reference Compound 112, 1-((4-(5-Benzylbenzo[d]oxazol-2-yl)-3-fluorophenyl)methyl)azetidine-3-carboxylic acid], 7.72; in that of `O=C(O)C1CN(Cc2ccc(-c3nc4cc(Cc5ccccc5)ccc4o3)cc2)C1` [Reference Compound 113, 1-((4-(5-Benzylbenzo[d]oxazol-2-yl)phenyl)methyl)azetidine-3-carboxylic acid], 6.44.
The same measure for `O=C(O)C1CN(Cc2ccc(-c3nc4ccc(Cc5ccccc5)cc4[nH]3)c(F)c2)C1` [Reference Compound 115, 1-((4-(5-Benzyl-1H-benzo[d]imidazol-2-yl)-3-fluorophenyl)methyl)azetidine-3-carboxylic acid]: 5.31; for `O=C(O)C1CN(Cc2ccc(-c3nc4cc(Oc5ccccc5)ccc4o3)c(F)c2)C1` [Reference Compound 116, 1-((3-Fluoro-4-(5-phenoxybenzo[d]oxazol-2-yl)phenyl)methyl)azetidine-3-carboxylic acid]: 7.92.

The values above are taken from patent EP2364976B1, “S1P receptor modulating compounds and use thereof” (EPIX Pharmaceuticals, Inc., priority 2007, dated 2007).
